For the experiment, the target named is human TRPA1 (Homo sapiens (Human), UniProt O75762). The experiment can be described thus: In vitro inhibition of human TRPA1, whole cell patch configuration. The format is cell-based. To be noted: current activation 10 μM AITC, tested concentrations 320 pM to 3.2 μM, read-out: hTRPA1 IC50. In a few lines: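 Compound antagonism measured from voltage ramps (±100 or ±80 mV, 400 ms, every 4 s from −40 mV), analysed at −80 and 80 mV, or at constant −60 mV. HEPES-buffered NaCl bath, pH 7.4, EGTA or 2 mM Ca2+; temperature set by perfusion, within ±2° C; no junction-potential correction.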
Chain of human TRPA1 (O75762 whole entry, the tested form may be a part): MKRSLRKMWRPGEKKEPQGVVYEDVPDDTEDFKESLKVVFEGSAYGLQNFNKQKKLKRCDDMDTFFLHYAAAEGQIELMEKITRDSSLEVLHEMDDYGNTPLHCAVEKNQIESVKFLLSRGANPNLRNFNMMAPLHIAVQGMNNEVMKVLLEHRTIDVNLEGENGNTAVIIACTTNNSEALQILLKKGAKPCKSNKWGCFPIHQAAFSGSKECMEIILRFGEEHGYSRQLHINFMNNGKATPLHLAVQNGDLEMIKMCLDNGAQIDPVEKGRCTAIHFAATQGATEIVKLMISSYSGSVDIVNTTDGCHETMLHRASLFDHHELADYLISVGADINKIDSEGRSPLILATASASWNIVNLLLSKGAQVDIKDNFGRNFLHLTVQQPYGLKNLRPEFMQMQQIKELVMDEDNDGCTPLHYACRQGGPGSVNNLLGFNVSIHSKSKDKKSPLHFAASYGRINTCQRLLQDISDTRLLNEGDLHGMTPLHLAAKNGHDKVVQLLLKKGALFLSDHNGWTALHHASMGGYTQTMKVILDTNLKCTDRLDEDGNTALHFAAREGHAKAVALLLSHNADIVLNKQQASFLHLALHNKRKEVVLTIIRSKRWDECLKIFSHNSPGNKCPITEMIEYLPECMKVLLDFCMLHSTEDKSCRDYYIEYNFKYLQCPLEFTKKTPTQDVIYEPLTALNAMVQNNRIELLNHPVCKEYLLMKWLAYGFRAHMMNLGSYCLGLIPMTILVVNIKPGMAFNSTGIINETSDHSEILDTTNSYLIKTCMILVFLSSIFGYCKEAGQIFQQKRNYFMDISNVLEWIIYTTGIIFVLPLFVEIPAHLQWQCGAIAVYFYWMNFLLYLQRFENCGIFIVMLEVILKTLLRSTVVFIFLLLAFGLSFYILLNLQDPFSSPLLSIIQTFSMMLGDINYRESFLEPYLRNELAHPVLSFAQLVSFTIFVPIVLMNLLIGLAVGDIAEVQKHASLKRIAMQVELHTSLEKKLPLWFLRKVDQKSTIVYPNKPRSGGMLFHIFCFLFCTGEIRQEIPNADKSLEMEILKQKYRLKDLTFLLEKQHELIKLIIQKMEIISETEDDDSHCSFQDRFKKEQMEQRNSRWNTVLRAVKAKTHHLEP

The source of these data is patent US10221177B2 (HYDRA BIOSCIENCES, INC., priority 2014, dated 2019).

Regarding `COCC(=O)Cn1c(=O)c2c(ncn2[C@@H](C)C(=O)Nc2cccc(-c3cnc(N4CC5CC5C4)cn3)n2)n(C)c1=O` (stereo partly drawn) [Compound 266, (2S)—N-(6-(5-(3-azabicyclo[3.1.0]hexan-3-yl)pyrazin-2-yl)pyridin-2-yl)-2-(1-(3-methoxy-2-oxopropyl)-3-methyl-2,6-dioxo-2,3-dihydro-1H-purin-7(6H)-yl)propanamide], the IC50 – broadly, the concentration that inhibits the measured activity by half – came to 7 nM.

Turning to `COCC(=O)Cn1c(=O)c2c(ncn2[C@@H](C)C(=O)Nc2cccc(-c3cnc(N4CC5CC5C4)nc3)n2)n(C)c1=O` (stereo partly drawn) [Compound 165, (2S)—N-(6-(2-(3-azabicyclo[3.1.0]hexan-3-yl)pyrimidin-5-yl)pyridin-2-yl)-2-(1-(3-methoxy-2-oxopropyl)-3-methyl-2,6-dioxo-2,3-dihydro-1H-purin-7(6H)-yl)propanamide], the half-inhibitory concentration (IC50) stood at 7 nM.

`Cc1noc(Cn2c(=O)c3c(ncn3CC(=O)Nc3cccc(-c4cnc(C(F)(F)F)c(C)c4)n3)n(C)c2=O)n1` [Compound 222, 2-(3-methyl-1-((3-methyl-1,2,4-oxadiazol-5-yl)methyl)-2,6-dioxo-2,3-dihydro-1H-purin-7(6H)-yl)-N-(5′-methyl-6′-(trifluoromethyl)-[2,3′-bipyridin]-6-yl)acetamide]: the IC50 is 5 nM.

With `CC(=O)Cn1c(=O)c2c(ncn2[C@@H](C)C(=O)Nc2csc(-c3cnc(C(F)(F)F)nc3)n2)n(C)c1=O` [Compound 31, (S)-2-(3-methyl-2,6-dioxo-1-(2-oxopropyl)-2,3-dihydro-1H-purin-7(6H)-yl)-N-(2-(2-(trifluoromethyl)pyrimidin-5-yl)thiazol-4-yl)propanamide], the IC50 was determined as 16 nM.

With `CC(C(=O)Nc1ccnc(-c2cnc(C(F)(F)F)nc2)n1)n1cnc2c1c(=O)n(Cc1ccccn1)c(=O)n2C` (stereo not shown) [Compound 141, 2-(3-methyl-2,6-dioxo-1-(pyridin-2-ylmethyl)-2,3-dihydro-1H-purin-7(6H)-yl)-N-(2′(trifluoromethyl)-2,5′-bipyrimidin-4-yl)propanamide], the 50% inhibitory concentration (IC50) was 80 nM.

On to `CC(=O)Cn1c(=O)c2c(ncn2[C@@H](C)C(=O)Nc2ncsc2-c2cnc(C(F)(F)F)nc2)n(C)c1=O` [Compound 154, (S)-2-(3-methyl-2,6-dioxo-1-(2-oxopropyl)-2,3-dihydro-1H-purin-7(6H)-yl)-N-(5-(2-(trifluoromethyl)pyrimidin-5-yl)thiazol-4-yl)propanamide], for which the IC50 is > 3200 nM.

On to `Cc1cc(Cn2c(=O)c3c(ncn3[C@@H](C)C(=O)Nc3ccnc(-c4cnc(C)c(C(F)(F)F)c4)n3)n(C)c2=O)no1` [Compound 110, (S)-2-(3-methyl-1-((5-methylisoxazol-3-yl)methyl)-2,6-dioxo-2,3-dihydro-1H-purin-7(6H)-yl)-N-(2-(6-methyl-5-(trifluoromethyl)pyridin-3-yl)pyrimidin-4-yl)propanamide], for which the IC50 was determined as 1 nM.

In the case of `CC(=O)Cn1c(=O)c2c(ncn2[C@@H](C)C(=O)Nc2cncc(-c3cnc(C)c(Cl)c3)n2)n(C)c1=O` [Compound 140, (S)—N-(6-(5-chloro-6-methylpyridin-3-yl)pyrazin-2-yl)-2-(3-methyl-2,6-dioxo-1(2-oxopropyl)-2,3-dihydro-1H-purin-7(6H)-yl)propanamide], the IC50 is 32 nM.

For `CCC(=O)Cn1c(=O)c2c(ncn2CC(=O)Nc2csc(-c3cnc(C(F)(F)F)c(C)c3)n2)n(C)c1=O` [Compound 249, 2-(3-methyl-2,6-dioxo-1-(2-oxobutyl)-2,3-dihydro-1H-purin-7(6H)-yl)-N-(2-(5-methyl-6-(trifluoromethyl)pyridin-3-yl)thiazol-4-yl)acetamide], the IC50 stood at 6 nM.

`C[C@@H](C(=O)Nc1cncc(-c2ccc(N3CC4CC4C3)nc2)n1)n1cnc2c1c(=O)n(CC#N)c(=O)n2C` (stereo partly drawn) [Compound 43, (2S)—N-(6-(6-(3-azabicyclo[3.1.0]hexan-3-yl)pyridin-3-yl)pyrazin-2-yl)-2-(1-(cyanomethyl)-3-methyl-2,6-dioxo-2,3-dihydro-1H-purin-7(6H)-yl)propanamide]: the concentration for half-maximal inhibition (IC50) stood at 8 nM.

In the case of `CCC(=O)Cn1c(=O)c2c(ncn2[C@@H](C)C(=O)Nc2csc(-c3cnc(C(F)(F)F)c(C)c3)n2)n(C)c1=O` [Compound 83, (S)-2-(3-methyl-2,6-dioxo-1-(2-oxobutyl)-2,3-dihydro-1H-purin-7(6H)-yl)-N-(2-(5-methyl-6-(trifluoromethyl)pyridin-3-yl)thiazol-4-yl)propanamide], the IC50 stood at 2 nM.

Regarding `CCN(CC)c1ncc(-c2cccc(NC(=O)[C@H](C)n3cnc4c3c(=O)n(Cc3cc(C)on3)c(=O)n4C)n2)cn1` [Compound 27, (S)—N-(6-(2-(diethylamino)pyrimidin-5-yl)pyridin-2-yl)-2-(3-methyl-1-((5-methylisoxazol-3-yl)methyl)-2,6-dioxo-2,3-dihydro-1H-purin-7(6H)-yl)propanamide], the IC50 was 2 nM.

On to `C[C@@H](C(=O)Nc1cncc(-c2cnc(C(F)(F)F)nc2)n1)n1cnc2c1c(=O)n(Cc1ccccn1)c(=O)n2C` [Compound 8, (S)-2-(3-methyl-2,6-dioxo-1-(pyridin-2-ylmethyl)-2,3-dihydro-1H-purin-7(6H)-yl)-N-(6-(2-(trifluoromethyl)pyrimidin-5-yl)pyrazin-2-yl)propanamide], for which the IC50 came out at 44 nM.

Regarding `CC(=O)Cn1c(=O)c2c(ncn2[C@@H](C)C(=O)Nc2cccc(-c3cnc(C(F)(F)F)nc3)n2)n(C)c1=O` [Compound 4, (S)-2-(3-methyl-2,6-dioxo-1-(2-oxopropyl)-2,3-dihydro-1H-purin-7(6H)-yl)-N-(6-(2-(trifluoromethyl)pyrimidin-5-yl)pyridin-2-yl)propanamide], the IC50 is 25 nM.

In the case of `C[C@@H](C(=O)Nc1csc(-c2ccc(N3CC4CC4C3)nc2)n1)n1cnc2c1c(=O)n(CC#N)c(=O)n2C` (stereo partly drawn) [Compound 64, (2S)—N-(2-(6-(3-azabicyclo[3.1.0]hexan-3-yl)pyridin-3-yl)thiazol-4-yl)-2-(1-(cyanomethyl)-3-methyl-2,6-dioxo-2,3-dihydro-1H-purin-7(6H)-yl)propanamide], the IC50 was determined as 2 nM.

For `Cc1cc(-c2nc(NC(=O)[C@H](C)n3cnc4c3c(=O)n(CC(F)(F)F)c(=O)n4C)cs2)cnc1C(F)(F)F` [Compound 161, (S)-2-(3-methyl-2,6-dioxo-1-(2,2,2-trifluoroethyl)-2,3-dihydro-1H-purin-7(6H)-yl)-N-(2-(5-methyl-6-(trifluoromethyl)pyridin-3-yl)thiazol-4-yl)propanamide], the IC50 is 219 nM.

With `CC(=O)Cn1c(=O)c2c(nc(C)n2CC(=O)Nc2cccc(-c3ccc(Cl)cc3)n2)n(C)c1=O` [Compound 192, N-(6-(4-chlorophenyl)pyridin-2-yl)-2-(3,8-dimethyl-2,6-dioxo-1-(2-oxopropyl)-1,2,3,6-tetrahydropurin-7-yl)acetamide], the IC50 worked out at 33 nM.

With `C[C@@H](C(=O)Nc1cccc(-c2cnc(N3CC4CC4C3)nc2)n1)n1cnc2c1c(=O)n(CC#N)c(=O)n2C` (stereo partly drawn) [Compound 11, (2S)—N-(6-(2-(3-azabicyclo[3.1.0]hexan-3-yl)pyrimidin-5-yl)pyridin-2-yl)-2-(1-(cyanomethyl)-3-methyl-2,6-dioxo-2,3-dihydro-1H-purin-7(6H)-yl)propanamide], the IC50 was found to be 5 nM.

Take `CCC(=O)Cn1c(=O)c2c(ncn2[C@@H](C)C(=O)Nc2cccc(-c3ccc(C(F)(F)F)nc3)n2)n(C)c1=O` [Compound 116, (S)-2-(3-methyl-2,6-dioxo-1-(2-oxobutyl)-2,3-dihydro-1H-purin-7(6H)-yl)-N-(6′-(trifluoromethyl)-[2,3′-bipyridin]-6-yl)propanamide]: the IC50 is > 3200 nM.

Take `C[C@@H](C(=O)Nc1csc(-c2ccc(N3CC4CC4C3)nc2)n1)n1cnc2c1c(=O)n(CC#N)c(=O)n2C` (stereo partly drawn) [Compound 66, (2S)—N-(2-(6-(3-azabicyclo[3.1.0]hexan-3-yl)pyridin-3-yl)thiazol-4-yl)-2-(1-(cyanomethyl)-3-methyl-2,6-dioxo-2,3-dihydro-1H-purin-7(6H)-yl)propanamide]: the IC50 came out at 2 nM.

Take `C[C@@H](C(=O)Nc1cncc(-c2cnc(C(F)(F)F)nc2)n1)n1cnc2c1c(=O)n(Cc1ccon1)c(=O)n2C` [Compound 120, (S)-2-(1-(isoxazol-3-ylmethyl)-3-methyl-2,6-dioxo-2,3-dihydro-1H-purin-7(6H)-yl)-N-(6-(2-(trifluoromethyl)pyrimidin-5-yl)pyrazin-2-yl)propanamide]: the 50% inhibitory concentration (IC50) came out at 26 nM.

Regarding `Cn1c(=O)n(Cc2ccccn2)c(=O)c2c1ncn2CC(=O)Nc1csc(-c2ccc(F)c(F)c2)n1` [Compound 178, N-(2-(3,4-difluorophenyl)thiazol-4-yl)-2-(3-methyl-2,6-dioxo-1-(pyridin-2-ylmethyl)-2,3-dihydro-1H-purin-7(6H)-yl)acetamide], the concentration for half-maximal inhibition (IC50) stood at 14 nM.

Regarding `CCC(=O)Cn1c(=O)c2c(ncn2[C@@H](C)C(=O)Nc2cncc(-c3cnc(N4CC5C(C4)C5(F)F)cn3)n2)n(C)c1=O` (stereo partly drawn) [Compound 159, (2S)—N-(5′-(6,6-difluoro-3-azabicyclo[3.1.0]hexan-3-yl)-[2,2′-bipyrazin]-6-yl)-2-(3-methyl-2,6-dioxo-1-(2-oxobutyl)-2,3-dihydro-1H-purin-7(6H)-yl)propanamide], the IC50 stood at 6 nM.

On to `CNC(=O)Cn1c(=O)c2c(ncn2[C@@H](C)C(=O)Nc2cccc(-c3cnc(C(F)(F)F)nc3)n2)n(C)c1=O` [Compound 87, (S)-2-(3-methyl-1-(2-(methylamino)-2-oxoethyl)-2,6-dioxo-2,3-dihydro-1H-purin-7(6H)-yl)-N-(6-(2-(trifluoromethyl)pyrimidin-5-yl)pyridin-2-yl)propanamide], for which the IC50 was 258 nM.

On to `COc1ncc(-c2cccc(NC(=O)[C@H](C)n3cnc4c3c(=O)n(Cc3cc(C)on3)c(=O)n4C)n2)cc1C(F)(F)F` [Compound 121, (S)—N-(6′-methoxy-5′-(trifluoromethyl)-[2,3′-bipyridin]-6-yl)-2-(3-methyl-1-((5-methylisoxazol-3-yl)methyl)-2,6-dioxo-2,3-dihydro-1H-purin-7(6H)-yl)propanamide], for which the IC50 is 1 nM.
